Results on 1 compound are retold here after US20180353461A1, “USE OF CANNABINOIDS AS CERAMIDE-GENERATING ANTICANCER AGENTS IN TUMORS OF THE HEMATOPOIETIC AND LYMPHOID TISSUES” (priority 2014, published 2018).

For test [1], the system named is HL60 cells. The test is described as follows: SPT expression, ceramide staining and SPT inhibition in HL60 cells. Type of test: cell-based, human. Particulars: HL60, co-incubation with cannabinoid, 2 hours. The procedure:
Extracted proteins (15-25 ug/well) were separated by sodium dodecyl sulfate-polyacrylamide gel electrophoresis (SDS/PAGE) in pre-cast polyacrylamide gels AnykD (Bio-Rad Laboratories, Hercules, Calif., USA) under reducing and denaturing conditions. Electrophoretic run was performed at a constant current of 15 mA per gel in a Mini-Protean® Tetra Cell (Bio-Rad Laboratories) and were electrophoretically transferred onto PVDF membranes using Trans-Blot® Turbo™ System (Bio-Rad Laboratories). Blocking was performed with 2% bovine serum albumin [(BSA), Santa Cruz Biotechnology] in Tween-Tris buffer saline (TTBS). Membranes were incubated overnight at 4° C. with corresponding primary antibody in TTBS.
Cells were grown on glass cover slips (Menzel-Glaser, Thermo Fisher Scientific) in the presence or absence of WIN 55,212-2. The cover slips were then washed twice in phosphate-buffered saline (PBS), and the cells were fixed in cold 4% paraformaldehyde for 10 min, treated with sodium borohydride and, permeabilized in 0.02% Triton X-100 in PBS with 10% normal donkey serum for blocking. Cell nuclei were stained with diamidino-2-phenylindole [(DAPI), Pierce, Thermo Fisher Scientific)]. Then, cells were incubated with the anti-CB1 or anti-CB2 receptor antibodies or anti-ceramide in blocking buffer overnight at 4° C. in a humid chamber (Simport, Beloeil, QC, Canada). After washing with PBS, samples were further incubated for 90 min with Alexa 647- or Alexa 488-conjugated donkey secondary antibody.
After final washing in PBS, the cover slips were dried and mounted on slides using Fluoromount Aqueous Mounting Medium (Sigma-Aldrich). Changes in the protein expression were visualized by fluorescence microscopy using a specific excitation for each antibody. Digital images were acquired with CellSens Dimension Software (Olympus) and manipulated with Photoshop CS2 Software (Adobe Systems Inc). There was no labeling when the primary antibody was omitted (data not shown).
Additionally, de novo synthesis of ceramides also contribute to the apoptotic process triggered by cannabinoids in AML. We examined whether ceramides participate in the cannabinoid-induced apoptosis in leukemic cells. To this end, we analyzed the expression of serine palmitoyltransferase (SPT), the enzyme that catalyses the rate-limiting step of ceramide synthesis de novo. […] To ensure that this up-regulation of SPT entails an increased of ceramide synthesis, we examined the expression of ceramide by immunohistochemistry. […] Furthermore, to strengthen the engagement of the ceramide in cannabinoid-induced apoptosis, we analyzed the cannabinoid-induce apoptosis after inhibition of ceramide synthesis with Myoricin, a selective SPT inhibitor.

The subject of test [2] is U266 cells. The test is described as follows: SPT expression, ceramide staining and SPT inhibition in U266 cells. In kind it is cell-based, human. Conditions: U266, co-incubation with cannabinoid, 6 hours. The procedure: Except if otherwise indicated, for the viability assays primary cells were incubated 18 hours, with vehicle (with <0.15% DMSO) or cannabinoid. Meanwhile, the time course assays cells were performed at 0, 2, 6, 18 and 24 h. For the analysis of SPT activity, cells were co-incubated for the first 6 hours with the SPT inhibitor, myriocin, and the cannabinoid, WIN-55 or JWH-133.
Samples (15-25 ug/lane) were subjected to SDS/PAGE in pre-cast polyacrylamide gels AnykD (Bio-Rad Laboratories, Hercules, CA, USA) under reducing and denaturing conditions. Electrophoretic run was performed at a constant current of 15 mA per gel in a Mini-Protean® Tetra Cell (Bio-Rad Laboratories). Once proteins were separated by electrophoresis, were transferred onto PVDF membranes using Trans-Blot® Turbo™ System (Bio-Rad Laboratories). Electrotransference was conducted at constant amperage of 1.2 mA and at up to 25 V of voltage. The blotted membranes were then blocked with 2% bovine serum albumin [(BSA), Santa Cruz Biotechnology] in Tween-Tris buffer saline (TTBS) for 30 min with gentle agitation, and incubated overnight at 4° C. with corresponding primary antibody in TTBS. After twice washing with TTBS, membranes were incubated for 1-2 h at room temperature with suitable conjugated-HRP secondary antibody, and subjected to chemiluminescence detection using Western Blotting Luminol Reagent (Santa Cruz Biotechnology). Loading controls were carried out with an anti-beta-actin and anti-beta-tubulin antibodies (Sigma-Aldrich). Blots were captured using a digital imaging system ImageQuant LAS 4000 (Amersham GE Healthcare) and transferred to a digital image processing software to analyze (Adobe Photoshop CS2, version 9.0., Adobe Systems Inc., San Jose, Calif.).
After cannabinoids and/or antagonists or SPT inhibitor treatment, primary cells and cell lines were washed with PBS, collected and placed on slides (Menzel-Glaser, Thermo Fisher Scientific). Cells were fixed in cold 4% paraformaldehyde for 10 min, treated with sodium borohydride and, permeabilized in 0.02% Triton X-100 in PBS with 10% normal donkey serum for blocking. Then, cells were incubated with the anti-CB1 or anti-CB2 receptor antibodies, anti-active-caspase3, anti-ceramide in blocking buffer overnight at 4° C. in a humid chamber (Simport, Beloeil, QC, Canada). After washing with PBS, samples were further incubated for 90 min with Alexa 647- or Alexa 488—conjugated donkey secondary antibody. After twice washing, first with PBS and then with 50 mM Tris-HCl (pH 7.4), and were dipped in a solution of Sudan Black B (Sigma-Aldrich) in 70% methanol for 5 min. After immunocytochemistry, slides were mounted using Fluoromount Aqueous Mounting Medium (Sigma-Aldrich). Preparations were examined with an Olympus BX-61 microscope (Olympus, Hamburg, Germany) equipped with appropriate filters: FITC/Cy2 (green fluorophores) 460-490 nm bandpass excitation filter and 510-550 nm bandpass emission filter; rhodamine/Cy3 (red fluorophores) 541-551 nm excitation and 572-607 nm emission; and Cy5 (deep red fluorophore) 615-635 nm excitation and 655 nm longpass emission. Digital images were acquired with CellSens Dimension Software (Olympus) and contrasted with Photoshop CS2 Software (Adobe Systems Inc). […]
De novo synthesis of ceramides contribute to the apoptotic process triggered by cannabinoids. […] To this end, we analyzed the expression of serine palmitoyltransferase (SPT), the enzyme that catalyses the rate-limiting step of ceramide synthesis de novo. […]

Take `CCCCCCC(=O)CCCCCC/C=C/C[C@@H](O)[C@H](O)[C@@](N)(CO)C(=O)O` [Myoricin]: the “fragmentation of PARP induced by cannabinoid, after blockage of ceramide synthesis” value in test [1] is listed as “abolished, at least in part”; in test [2], “abolished, at least in part”.
